Experiment [1] relates to CHO cells. Description: ATP-induced calcium response (cellular uncoupling) in CHO cells. The following applies: α-GA 10 to 100 μM, octan-1-ol 1 mM. Type of experiment: cell-based, Chinese hamster. Here is the method: The Ca^2+ measurements are carried out in the presence of fura-2 (impermeant fluorescent probe) which binds […]. The cells are incubated in serum-free DMEM/F12 culture medium in the presence of the permeant form of fura-2 (fura-2/AM, 2.5 μM) for 1 h at 37° C. The cells, placed on the platform of an epifluorescent microscope (Olympus) (20× objective), are perfused with the solutions to be tested (e.g. ATP, octanol). They are sequentially illuminated at 340 nm and 380 nm and the fluorescence emitted (F) is measured at 510 nm. It is detected via a 12-bit CCD camera (Sony) connected to a data processing computer unit (TILL Photonics). The intracellular Ca^2+ concentration [Ca^2+]i is calculated using the Grynckiewicz equation (Grynckiewicz et al., 1985): [Ca^2+]i=Kdi *(R−Rmin/Rmax−R), based on the ratiometric analysis R (340/380 nm) of the fluorescence (TILL Vision); Rmax and Rmin denote the ratio of fluorescence measured in the presence or in the absence of Ca^2+.

Experiment [2] has as its target CFTR channel (Homo sapiens, UniProt P13569). Description: 125I radioactive iodide efflux in CHO-CFTR(+) cells. The following applies: CHO-CFTR(+) cells; n-alkanols 1 mM, FSK 1 μM, A23187 2 μM, α-GA 10 and 100 μM. On the set-up: expressed in transfected cells; host or cells: CHO (Chinese hamster ovary) cells, CHO-CFTR(+). Type of experiment: cell-based. As for the experimental part:
The cells are cultured in 24-well plates with a dilution to 1/10 after passage. […] The operation is repeated every 30 s for 2 to 6 min. […] All the samples are counted in a gamma counter (Kontron). The precipitated proteins are solubilized in 0.1N NaOH and quantified using a calorimetric test.
The tracer contained in the cell layer at the beginning of the efflux is calculated as the sum of the samples and of the extracts counted. The efflux curves are constructed by expressing the percentage of the content remaining in the cell layer (I %) with respect to time. The stimulated or nonstimulated efflux rate constants (k, min^−1) are determined by smoothing the efflux curves to a monoexponential function I %=100*exp(−kt) using a linear regression of the neperian logarithm of the data, k is used to calculate the iodide released into the medium with respect to time. The hypothesis is made that, in the presence of a stimulator, the efflux is the sum of two iodide effluxes occurring in parallel: a basal efflux and a stimulated efflux characterized, respectively, by the constants kb and ks. The total net efflux is then described by the equation It^%=100*(1−exp(−ktt)) where kt is the sum of kb and ks. Finally, ks calculated as kt−kb is used to establish a dose-response relationship for antagonists. The data is expressed as means ±SD, and the t-test is used to determine the significances. The concentration-response curves for agonists or for antagonists are smooth using the hyperbolic equation Y=Ymax*X/(EC5C+X), where Y is the response. Y begins at the basal level and progresses to the plateau (Ymax), X is the concentration and the half-effect values (EC are calculated using GraphPad Prism v3.0 (GraphPad software)).

The values below come from patent US20070191493A1, “Use of n-alkanols as activators of the cftr channel” (priority 2003, published 2007).

CFTR channel, sequence (P13569 whole entry): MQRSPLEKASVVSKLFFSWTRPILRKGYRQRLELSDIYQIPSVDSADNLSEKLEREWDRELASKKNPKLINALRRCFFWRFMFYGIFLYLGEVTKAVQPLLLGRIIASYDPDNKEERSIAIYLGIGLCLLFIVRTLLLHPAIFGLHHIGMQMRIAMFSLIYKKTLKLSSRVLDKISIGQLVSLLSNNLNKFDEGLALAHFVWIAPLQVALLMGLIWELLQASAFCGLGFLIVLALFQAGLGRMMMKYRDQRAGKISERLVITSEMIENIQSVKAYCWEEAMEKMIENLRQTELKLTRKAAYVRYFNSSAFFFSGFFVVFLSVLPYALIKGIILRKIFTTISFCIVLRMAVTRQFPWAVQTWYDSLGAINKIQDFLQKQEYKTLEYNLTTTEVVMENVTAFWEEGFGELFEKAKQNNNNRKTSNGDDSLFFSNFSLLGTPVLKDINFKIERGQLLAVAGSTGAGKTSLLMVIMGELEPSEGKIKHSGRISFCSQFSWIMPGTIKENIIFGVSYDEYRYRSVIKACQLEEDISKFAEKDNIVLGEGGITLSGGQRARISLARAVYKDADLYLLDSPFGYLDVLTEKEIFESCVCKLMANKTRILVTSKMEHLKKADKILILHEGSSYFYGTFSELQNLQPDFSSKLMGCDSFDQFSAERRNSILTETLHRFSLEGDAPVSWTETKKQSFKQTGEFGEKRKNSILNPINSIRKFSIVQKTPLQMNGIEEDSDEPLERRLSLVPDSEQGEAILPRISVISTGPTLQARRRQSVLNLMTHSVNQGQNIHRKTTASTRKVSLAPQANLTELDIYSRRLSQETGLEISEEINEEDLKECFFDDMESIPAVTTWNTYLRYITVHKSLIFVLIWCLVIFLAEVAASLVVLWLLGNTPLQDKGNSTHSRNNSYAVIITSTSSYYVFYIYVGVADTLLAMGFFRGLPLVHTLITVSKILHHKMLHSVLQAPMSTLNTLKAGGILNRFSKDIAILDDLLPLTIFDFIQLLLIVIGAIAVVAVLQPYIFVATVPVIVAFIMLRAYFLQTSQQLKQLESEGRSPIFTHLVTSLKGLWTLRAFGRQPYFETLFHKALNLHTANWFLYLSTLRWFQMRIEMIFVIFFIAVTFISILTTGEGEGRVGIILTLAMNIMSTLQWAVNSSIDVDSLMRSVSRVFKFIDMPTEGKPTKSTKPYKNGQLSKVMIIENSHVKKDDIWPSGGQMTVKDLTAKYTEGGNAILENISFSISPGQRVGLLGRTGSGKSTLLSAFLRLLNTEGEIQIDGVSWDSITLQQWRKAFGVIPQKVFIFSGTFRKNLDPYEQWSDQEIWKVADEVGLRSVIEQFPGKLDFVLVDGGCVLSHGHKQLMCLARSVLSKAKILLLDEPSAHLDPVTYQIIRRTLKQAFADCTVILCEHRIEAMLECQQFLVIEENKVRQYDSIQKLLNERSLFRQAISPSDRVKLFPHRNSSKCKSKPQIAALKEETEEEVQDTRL

`CC1(C)[C@@H](O)CC[C@]2(C)[C@H]3C(=O)C=C4[C@H]5C[C@@](C)(C(=O)O)CC[C@]5(C)CC[C@@]4(C)[C@]3(C)CC[C@@H]12` [α-GA, 18-alpha glycerrhetinic acid, reference compound]: in experiment [1], the “cellular uncoupling shown by ATP-induced calcium response” value is “clearly uncouples the cells”. The “activation of CFTR (125I efflux), in words” value in experiment [2] was “no effect”.
